Experimental data reported in PubChem BioAssay (NCI).
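Method: 48-hour compound exposure of cells in 96-well plates, five concentrations, linear interpolation of endpoints. Abbreviation: GI50, concentration required for 50% inhibition of growth. At the TGI there is no net growth.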

What was measured:
Assay in all cases: inhibition of tumour cell growth, NCI panel, 48 h
SR leukemia = tested on: SR leukemia
KM12 colon = tested on: KM12 colon
SK-OV-3 ovarian = tested on: SK-OV-3 ovarian
SK-MEL-2 melanoma = tested on: SK-MEL-2 melanoma
HOP-62 NSCLC = tested on: HOP-62 NSCLC
HCT-116 colon = tested on: HCT-116 colon
MALME-3M melanoma = tested on: MALME-3M melanoma
SN12C renal = tested on: SN12C renal
HCC-2998 colon = tested on: HCC-2998 colon
LOX IMVI melanoma = tested on: LOX IMVI melanoma

SMILES	TGI (SR leukemia)	TGI (KM12 colon)	TGI (SK-OV-3 ovarian)	TGI (SK-MEL-2 melanoma)	TGI (HOP-62 NSCLC) [µM]	TGI (HCT-116 colon)	TGI (MALME-3M melanoma)	TGI (SN12C renal)	TGI (HCC-2998 colon)	TGI (LOX IMVI melanoma)	GI50 (SR leukemia)	GI50 (KM12 colon)	GI50 (SK-OV-3 ovarian)	GI50 (SK-MEL-2 melanoma)	GI50 (HOP-62 NSCLC) [µM]	GI50 (HCT-116 colon)	GI50 (MALME-3M melanoma)	GI50 (SN12C renal)	GI50 (HCC-2998 colon)	GI50 (LOX IMVI melanoma)
Cc1ccccc1C(=O)c1cc(O)ccc1O	> 100 µM	> 100 µM	> 100 µM	> 100 µM	> 100	> 100 µM	> 100 µM	> 100 µM	> 100 µM											
CC(C)(C)c1cc(C(P(=O)(O)O)P(=O)(O)O)cc(C(C)(C)C)c1O		> 100 µM	> 100 µM	> 100 µM	> 100	> 100 µM			> 100 µM	> 100 µM										
CN(C)CCC(/C=C/c1ccccc1)=N\Nc1ccccc1		13.2 µM	9.8 µM		8.93	10.8 µM	13.1 µM	11.6 µM		0.454 µM										
COC(=O)c1c2c(c(C)[n+]([O-])c1C)C(=O)C=C(NCc1ccc(F)cc1)C2=O	9.92 µM	2.22 µM	6.45 µM	2.78 µM	3.76	1.18 µM	0.389 µM	1.41 µM	1.77 µM	2.09 µM	0.639 µM	0.357 µM	2.53 µM	1.11 µM	1.38	0.319 µM	0.153 µM	0.345 µM	0.442 µM	0.224 µM
O=c1c(F)cn(Cc2ccc(C34CC5CC(CC(C5)C3)C4)c(O)c2)c(=O)n1Cc1ccc(C23CC4CC(CC(C4)C2)C3)c(O)c1	26.5 µM	32.8 µM	33.1 µM	41.8 µM	33.1	25 µM	29.2 µM	22.3 µM	33.2 µM	20 µM	7.17 µM	15.5 µM	17.9 µM	18.8 µM	17.5	11.1 µM	14.8 µM	10.5 µM	17.8 µM	6.98 µM
Cc1nc(Nc2ccc(Cl)cc2)sc1C(=O)NNC(=S)NN		42.3 µM	54 µM	33.4 µM	33	30.8 µM	35.5 µM	34.3 µM	28.8 µM	29.5 µM										
COc1cc(OC)c2c(=O)cc(-c3ccc(OC)c(OC)c3OC)oc2c1		> 100 µM	> 100 µM	> 100 µM	> 100	> 100 µM	> 100 µM	> 100 µM	> 100 µM	> 100 µM										
CN1CCN(c2ccc(Nc3cc(-c4cccc(-n5ccc6cc(C7CC7)cc(F)c6c5=O)c4CO)cn(C)c3=O)nc2)CC1	5.27 µM	31.1 µM	29.5 µM	35.1 µM	20.7	18.9 µM	4.79 µM	13.9 µM	35.8 µM	12.7 µM	1.79 µM	6.16 µM	14.6 µM	15 µM	3.97	3.31 µM	2.25 µM	3.35 µM	10.4 µM	3.4 µM
CSc1nc(SC)c2c(C#N)[nH]nc2n1	> 100 µM	> 100 µM	> 100 µM	> 100 µM	> 100		> 100 µM	> 100 µM	> 100 µM	> 100 µM										
O=C(Nc1cccc(Cl)c1)C(=O)C(C(=O)c1ccc2ccccc2c1)C1OC(=O)c2ccccc21 (configuration not stated)		60.3 µM	> 100 µM	32.5 µM	37.3	26.7 µM	30.8 µM	51 µM	21.8 µM	44.5 µM										
C#CC1/C(=C\C(=O)OC)CCCC1O (configuration not stated)	> 100 µM	> 100 µM	> 100 µM	> 100 µM	> 100	> 100 µM	> 100 µM	> 100 µM	> 100 µM											
Cc1cc2c(=O)c3ccccc3[nH]c2c(C(N)=O)c1C		> 100 µM	> 100 µM	> 100 µM		> 100 µM	> 100 µM	> 100 µM		> 100 µM										
CCOC(=O)c1ccc(/C(C)=N/NC(N)=S)cc1			> 100 µM		> 100	> 100 µM		> 100 µM	> 100 µM	> 100 µM										
Nc1ncn([C@@H]2O[C@H](CO)[C@@H](O)[C@H]2O)c(=O)n1	> 100 µM		5.46 µM	3.83 µM	2.67	1.71 µM	25.3 µM	> 100 µM	5.55 µM	2.1 µM	3.5 µM		1.14 µM	0.612 µM	0.49	0.322 µM	3.65 µM	0.594 µM	0.636 µM	0.292 µM
CC(=O)Nc1ccc(-c2csc(Nc3cccc(-c4csc(C)n4)c3)n2)cc1	> 50 µM	6.07 µM	19.1 µM	> 27.3 µM	15	> 26.7 µM		6.78 µM	8.98 µM	10.1 µM	0.787 µM	0.404 µM	2.38 µM	8.03 µM	3.02	0.697 µM		1.36 µM	0.00657 µM	0.375 µM
COc1cc(N(CCC#N)CCC#N)ccc1/C(N=Nc1ccc(Cl)cc1)=N/NC(=O)c1cc(Br)ccc1O	> 150 µg/mL	129 µg/mL	> 150 µg/mL	> 150 µg/mL		> 150 µg/mL	> 150 µg/mL	> 150 µg/mL	81.8 µg/mL	> 150 µg/mL	96.3 µg/mL	48 µg/mL	90.8 µg/mL	146 µg/mL		53.2 µg/mL	> 150 µg/mL	88.4 µg/mL	33.8 µg/mL	49.3 µg/mL
COc1c(O)c2c(=O)cc3c4c5c(cc(=O)c6c(O)c(OC)c(CC(C)O)c(c(c1CC(C)O)c24)c65)OCO3 (configuration not stated)	9.41 µM	4.09 µM	20.4 µM	3.57 µM	4.01	3.48 µM	1.27 µM	3.18 µM		2.28 µM										
S=c1[nH]c(=S)c2cc3ccccc3nc2[nH]1		> 100 µM	> 100 µM	84.7 µM	> 100	> 100 µM	45.1 µM	> 100 µM	> 100 µM	> 100 µM		29.5 µM	> 100 µM	26.1 µM	> 100	69.8 µM	14.6 µM	> 100 µM	92.3 µM	> 100 µM
